Laboratory results as given in PMC3086094 (Journal of molecular structure, 2011).

Experiments:
[1] = system: HCT-116 (human colon carcinoma); assay: MTS cytotoxicity assay, HCT-116; format: cell-based
[2] = system: CCD-18Co (human colon fibroblasts); assay: cells
[3] = system: CCD-18Co (human colon fibroblasts)
[4] = system: Caco-2 (human epithelial colorectal adenocarcinoma); assay: cells
[5] = system: calf thymus DNA (EB-DNA complex); conditions: binding to DNA; cited from earlier work

Compound	IC50 ([1]; HCT-116, 24 h) [µM]	IC50 ([1]; HCT-116, 48 h) [µM]	IC50 ([1]; HCT-116, 72 h) [µM]	IC50 ([2]; 24 h) [µM]	IC50 ([2]; 48 h) [µM]	IC50 ([2]; 72 h) [µM]	cytotoxic selectivity, cancer cells versus normal cells CCD-18Co [3]	IC50 ([4]; Caco-2, 24 h) [µM]	IC50 ([4]; Caco-2, 48 h) [µM]	IC50 ([4]; Caco-2, 72 h) [µM]	KEB, binding constant for ethidium bromide [5] [M⁻¹]
COc1cc([C@@H]2c3cc4c(cc3[C@@H](O[C@@H]3O[C@@H]5CO[C@@H](C)O[C@H]5[C@H](O)[C@H]3O)[C@H]3COC(=O)[C@H]23)OCO4)cc(OC)c1O [Etoposide]	27.2 ± 1.2	22.9 ± 1.5	18.3 ± 1.4	50.1 ± 1.5	45.2 ± 1.1	42.2 ± 1	~ 2.5 times	23.1 ± 1.2	17.9 ± 1.3	16.5 ± 2	
CC[n+]1c(-c2ccccc2)c2cc(N)ccc2c2ccc(N)cc21 [ethidium bromide]											1.2e+06
